Measured values published in ChEMBL document CHEMBL2034954, “Synthesis and antimycobacterial activity of novel 1,3-dimethylisocyanurate derivatives” (Eur J Med Chem, 2012).
Activity calls are given as the source filed them. No cut-off for these calls is given here.

Legend:
[1] = system: Mycobacterium tuberculosis; experiment: Antitubercular activity against multidrug-resistant Mycobacterium tuberculosis clinical isolate at 10 ug/mL by radiometric growth assay; assay type: functional, organism-based
[2] = system: Mycobacterium tuberculosis; experiment: Antitubercular activity against multidrug-resistant Mycobacterium tuberculosis clinical isolate assessed as number of colonies at 10 ug/mL by radiometric growth assay; assay type: functional
[3] = system: Mycobacterium tuberculosis; experiment: Antitubercular activity against multidrug-resistant Mycobacterium tuberculosis clinical isolate assessed as number of colonies at 1 ug/mL by radiometric growth assay; assay type: functional
[4] = system: Mycobacterium tuberculosis; experiment: Antitubercular activity against multidrug-resistant Mycobacterium tuberculosis clinical isolate at 40 ug/mL by radiometric growth assay; assay type: functional, organism-based
[5] = system: Mycobacterium tuberculosis; experiment: Antitubercular activity against multidrug-resistant Mycobacterium tuberculosis clinical isolate at 80 ug/mL by radiometric growth assay; assay type: functional, organism-based
[6] = system: Mycobacterium tuberculosis; experiment: Antitubercular activity against multidrug-resistant Mycobacterium tuberculosis clinical isolate at 1 ug/mL by radiometric growth assay; assay type: functional, organism-based

With `CC1COc2c(N3CCN(C)CC3)c(F)cc3c(=O)c(C(=O)O)cn1c23` (configuration not stated) the Activity [1] was “inactive”.
`Cn1c(=O)n(C)c(=O)n(CCCCC[S+]([O-])CC(=O)NN)c1=O` (configuration not stated) was tested, and the CFU [2] was 10 and the CFU [3] was 15.
With `CO[C@H]1/C=C/O[C@@]2(C)Oc3c(C)c(O)c4c(O)c(c(/C=N/N5CCN(C)CC5)c(O)c4c3C2=O)NC(=O)/C(C)=C\C=C\[C@H](C)[C@H](O)[C@@H](C)[C@@H](O)[C@@H](C)[C@H](OC(C)=O)[C@@H]1C` the Activity [4] was “inactive” and the Activity [5] was “inactive”.
For `NNC(=O)c1ccncc1` [ISONIAZID], the Activity [6] was “inactive” and the Activity [1] was “inactive”.
